According to US8729053B2, “Nuclear factor kappa B pathway inhibitor composition and use of same” (The United States of America, as represented by the …, priority 2008, dated 2014):
“Also recorded” adds a separate entry of the source. Structures can show the parent of a compound that is named as a salt.

How the values were obtained:
Format in all cases: cell-based
[1] = system: MCF-7, T47D, and MDA-MB-231 breast cancer cell lines; assay: Matrigel invasion assay
Experimental: Breast cancer cell lines, MCF-7, T47D, and MDA-MB-231 were used to measure the effect of compound I on TPA-induced invasion activity using Matrigel Invasion Chamber (BD Bioscience, San Jose, Calif.) according to the manufacturer's protocol. Matrigel-coated chambers containing an 8 μm pore size filter were fitted into a 24-well tissue culture plate. Briefly, breast cancer cells (1×10^5 cells/ml) of each cell line were seeded into […] Matrigel-coated chambers with DMSO, TPA, or TPA plus compound I conditions and incubated for 24 hrs. The media wells for each plate contained only standard growth medium. After 24 hrs the non-invading cells were removed from the upper side of the chamber by cotton tipped applicators. The invaded cells on the bottom side were stained using Diff-Quik staining (Dade Behring, Deerfield, Ill.) and photographed. Three independent results were very similar.
In order to evaluate the potential therapeutic activity of the compound, tests for the biological activity of compound I were performed. […] Following anchorage-independent colony induction in TPA-treated cells without or with compound I, colonies were lysed and measured with CyQuant GR Dye to detect DNA by fluorescence plate reader as a measure of colony count. Total transformed colony numbers were calculated from RFU and cell dose curve of JB6 cells. […]

IKKγ = assay: Immunoblot of phosphorylated IKKγ in HEK293 cells; conditions: compound I pretreatment
Experimental: (§1) To measure endogenous level of several proteins in response to TPA induction and compound I, HEK293 cells were lysed with RIPA buffer (10 mM Tris-HCl pH 7.5, 1 mM EDTA, 0.1% sodium dodecyl sulfate, 0.1% deoxycholate, and protease inhibitor). Whole cell extracts were subjected to immunoblot analysis with the following antibodies: p65 (F-6), p50 (E-10), p52 (C-5), RelB (C-19), IκBα (C-21), PCNA (F-2) were obtained from Santa Cruz Biotechnology (Santa Cruz, Calif.). IKKα, IKKβ, IKKγ, phospho-IκBα, phospho-IKKα/β, phospho-IKKγ, pohospho-Stat3 (Tyr 705 and Ser 727), phospho-p65 (Ser536 and Ser276), phospho-p44/42, phospho-JNKs were purchased from Cell Signaling (Danvers, Mass.), and α-tubulin from Sigma (St. Louis, Mo.). Nuclear and cytoplasmic extracts were prepared with HEK293 cells by NE-PER Nuclear and Cytoplasmic Extraction Reagents (Pierce Biotechnology, Rockford, Ill.) according to the manufacturer's protocol.
To characterize the activity of compound I in targeting events upstream of NFκB, endogenous levels of kinases involved in NFκB activation were examined by immunoblot analysis. The well-established upstream regulators of NFκB activation are IKKα, IKKβ, and IκBα. […] Moreover, the phosphorylation of IκBα was inhibited even at 1.1 μM showing dose-dependent decrease by compound I pretreatment. […]

p65/p50 = assay: Nuclear translocation of p65/p50, immunoblot of nuclear and cytoplasmic extracts; conditions: compound I pretreatment, HEK293
Experimental: as §1
Nuclear translocation of endogenous p65/p50 and RelB/p52 heterodimers were monitored The activation of heterodimers p65/p50 and RelB/p52 occurs by distinct pathways dependent on IKKβ or IKKα catalytic activity. Repression of IKKβ would be expected to influence nuclear translocation of p65/p50 while repression of IKKα would influence processing of p100 to p52. […] However translocation of RelB is only dependent on IKKα for processing of its dimer partner p52 from p100. […]

For `Cc1cc(N)ccc1N=Nc1ccc(S(=O)(=O)CCOS(=O)(=O)O)cc1` [compound I, 2-(4-((4-amino-2-methylphenyl)diazenyl)phenylsulfonyl)ethyl hydrogen sulfate], the “Basal invasive activity” value ([1]; MBA-MB-231 cells) was “completely inhibited”, the “TPA-increased invasion” value ([1]; three breast cancer cell lines, 24 hrs) was “completely inhibited; also recorded: inhibits” and the “Phosphorylation of IKKγ” value (IKKγ) was “did not change”. The “TPA-induced nuclear translocation of p65 (RelA)” value (p65/p50) was “remarkably repressed; also recorded: interception”.
